Patent US10633351B2, “Halogenated compound and axially chiral isomer thereof” (MEDSHINE DISCOVERY INC., priority 2016, dated 2020)
Read-outs that look alike come from different tables or passages of the source.

Tests used:
[1] = hepatocyte, human; cited from earlier work
[2] = hepatocyte, dog; cited from earlier work
[3] = Pharmacokinetics in SD rats after IV and PO administration; format: in vivo; conditions: rat; for bioavailability: read-out: Bioavailability F; for C0: read-out: Starting concentration C0; for Cmax: read-out: Peak concentration Cmax; for MRT inf: read-out: Detention time MRT0-inf; for half-life: read-out: Half-life T1/2 (converted)
Experimental: Drug concentrations in plasma of (−)-WX001 and (+)-WX002 were measured by LC/MS/MS method at different times after SD rats as tested animals were administered (−)-WX001 and (+)-WX002 by IV (intravenous injection) and PO (gavage), and the pharmacokinetic behavior of the compound in the present invention in rats was investigated, and its pharmacokinetic characteristics were evaluated.
12 healthy adult male SD rats were divided into 4 groups (each compound contained IV and PO group), 3 rats per group. SD rats were purchased from Shanghai Slac Laboratory Animal CO.LTD, whose animal production license number was SCXK (Shanghai) 2012-0002.
The appropriate amount of the sample was weighed, added a certain amount of DMSO and ultrasonic dissolved, and then was added 20% hydroxypropyl-β-cyclodextrin solution to give tested compound which was 1 mg/mL 5% DMSO/95% 20% HPCD clear solution used for IV and PO administration.
12 SD rats were divided into 4 groups and there were 3 male rats in each group, and administrated by IV, PO, respectively after fasting overnight. The dose of IV was 2 mg/kg and administration volume was 2 mL/kg; the dose of PO was 10 mg/kg and administration volume was 10 mL/kg.
In group of IV, about 200 μL of blood was collected at 0.083, 0.25, 0.5, 1, 2, 4, 6, 8, 24 hour after administration, placed in an anticoagulant tube of K2-EDTA, centrifuged at 3000 rpm for 15 minutes, and then plasma was separated and stored at −80° C. In group of PO, blood was collected at 0.25, 0.5, 1, 2, 4, 6, 8, 24 hour after administration, and the other operations were the same as the group of IV. The plasma samples were pretreated through precipitated protein and the plasma concentration was determined by LC/MS/MS method. A linear range of the analytical method was 4.00-6000 nM.

[4] = liver microsome, human; cited from earlier work
[5] = Metabolite identification after 120 min incubation in human hepatocytes (LC-UV-MSn); format: in vitro ADME; conditions: for Percentage of ultraviolet area: human hepatocytes, 10 μM, 120 min; for metabolites detected: human hepatocyte metabolism, same condition as (±)-Lesinurad
Experimental: The purpose of this experiment was to confirm the metabolites of a series of compounds after incubation for 120 minutes in human hepatocytes using LC-UV-MS^n (n=1-2) detection. MS and MS^2 data were analyzed using MetaboLynx™ software after data collection.
Alter incubating the sample for 2 h, the protein was precipitated by using acetonitrile containing 01.% formic acid, centrifuged, and the supernatant was taken out and dried an under nitrogen, and dissolved and then injected for analysis.

[6] = hepatocyte, monkey; cited from earlier work
[7] = human, 0-144 h, after Lesinurad, cited from earlier work
[8] = liver microsome, monkey; cited from earlier work
[9] = liver microsome, dog; cited from earlier work
[10] = hepatocyte, rat; cited from earlier work
[11] = liver microsome, rat; cited from earlier work
URAT-1 = molecular target: T1, URAT-1 (Homo sapiens, UniProt Q96S37); experiment: Inhibition of 14C-labelled uric acid transport in MDCK cell line stably transfected with the URAT-1 gene; format: cell-based; conditions: for IC50: MDCK cells stably transfected with URAT-1, 14C uric acid 50 uM, read-out: IC50 against URAT-1
T1 construct: expressed in transfected cells; host or cells: MDCK
T1 sequence (Q96S37 1-553): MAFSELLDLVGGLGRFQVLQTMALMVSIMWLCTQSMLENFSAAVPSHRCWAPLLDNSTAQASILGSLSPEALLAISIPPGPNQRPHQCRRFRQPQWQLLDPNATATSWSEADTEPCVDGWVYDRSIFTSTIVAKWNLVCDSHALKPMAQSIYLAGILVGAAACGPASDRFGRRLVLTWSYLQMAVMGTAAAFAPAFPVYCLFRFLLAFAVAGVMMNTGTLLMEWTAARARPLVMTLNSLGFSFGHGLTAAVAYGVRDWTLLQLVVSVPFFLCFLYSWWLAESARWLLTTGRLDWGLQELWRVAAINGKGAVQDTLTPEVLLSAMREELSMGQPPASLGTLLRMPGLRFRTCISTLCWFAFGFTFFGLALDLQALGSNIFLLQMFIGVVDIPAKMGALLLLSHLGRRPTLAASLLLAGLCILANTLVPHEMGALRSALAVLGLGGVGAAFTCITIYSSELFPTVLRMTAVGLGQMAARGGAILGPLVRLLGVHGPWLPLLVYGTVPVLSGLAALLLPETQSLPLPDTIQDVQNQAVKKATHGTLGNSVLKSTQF
From the text: The inventors examined the ability of these compounds to inhibit the transport of labeled uric acid by MDCK cell lines stably transfected with the human URAT1 gene.
Determination of the IC50 value of the inhibitory activity of the compound against uric acid reabsorption by the MDCK cell line stably transfected with the URAT-1 (uric acid transporter) gene.
URAT-1 (MDCK) cell line: the MDCK cell line stably transfected with the URAT-1 gene
Cell culture medium: MEM culture medium added 10% fetal bovine serum (FBS), 1% sodium pyruvate and 250 ug/ml G418.
4) cells were diluted to 2.5×10^5/mL with the culture medium, and the diluted cells were added into a rat tail collagen-coated 24-well plate (800 uL/well, 2×10^5 cells/well). The plate was incubated overnight at 37° C. in a 5% CO2 incubator.
1) cells were seeded into 24-well plate, and supernatant was discarded after 16-18 h. The cells were washed twice using 600 ul HBSS buffer.
2) HBSS buffer was removed and 180 ul of HBSS buffer was added into each well again.
1) powder of compounds was dissolved into 100% DMSO, and diluted into 6 concentration points by 3-fold dilution, or into 2 concentration points by 10-fold dilution, and the highest starting concentration was 50 mM.
2) 5 ul DMSO solution in step 1) was transferred into 120 ul of HBSS buffer to make a 25-fold dilution.
3) 10 ul diluted solution in step 2) was added into 24-well plate, and the plate was incubated for 15 min at 37° C. in a 5% CO2 incubator. The final concentration of DMSO was 0.2%. The control well contained 0.2% DMSO without compound.
^14C-labelled uric acid was diluted and added into plate, and the final concentration was 50 uM. The plate was incubated for 10 min at 37° C. in a 5% CO2 incubator. After supernatant was discarded, cells were washed with HBSS buffer twice. Cells was lysed with 0.1M NaOH. And then cell lysis solution was collected into liquid scintillation tube and added with liquid scintillation solution. The signal was read by liquid scintillation counter Tri-Carb.
URAT-1 inhibition by the treatment of the compounds was analyzed by calculating the percentage of inhibition according to […] data. Non-linear curve fitting analysis on the percent inhibition (inh %) data using GraphPad Prism software generate the IC50 value.

[12] = male, SD, plasma, po, 10 mg/kg, PO 10 mpk
[13] = male, SD, plasma, iv, 2 mg/kg, IV 2 mpk

For `O=C(O)CSc1nnc(Br)n1-c1ccc(C2CC2)c2ccccc12` (racemic) [(±)-Lesinurad, Lesinurad, reference compound], the “amount of metabolite / parent found (Total 100)” value [1] is listed as 92.1, the “amount of metabolite / parent found (Total 100)” value [2] is listed as 100 and the bioavailability [3, 12] is listed as 84%. The “Area under curve AUC0-inf” value ([3]; IV 2 mpk) was 14.823 µM·h, the C0 ([3]; IV 2 mpk) was 11.6 µM and the “Area under curve AUC0-inf” value ([3]; PO 10 mpk) was 62.491 µM·h. The Cmax ([3]; PO 10 mpk) was 14.5 µM, the “amount of metabolite / parent found (Total 100)” value [4] was 100 and the “Percentage of ultraviolet area” value [5] was 95.60%. The “amount of metabolite / parent found (Total 100)” value [6] was 98.1, the “Percentage of administered dose” value ([7]; Feces) was 1.5% and the “Percentage of administered dose” value ([7]; Urine) was 31.3%. For the same molecule, the “amount of metabolite / parent found (Total 100)” value [8] was 92.1, the “amount of metabolite / parent found (Total 100)” value [9] was 100 and the “amount of metabolite / parent found (Total 100)” value [10] was 100. The “amount of metabolite / parent found (Total 100)” value [11] was 100.
`O=C(O)CSc1nnc(Br)n1-c1c(Cl)cc(C2CC2)c2ccccc12` (racemic) [(±)-WX003] showed an IC50 (URAT-1) of 10.4 µM.
With `O=C(O)CSc1nnc(Br)n1-c1c(Cl)cc(C2CC2)c2ccccc12` (single isomer, unassigned) [(+)-WX002] the “Area under curve AUC0-inf” value ([3]; IV 2 mpk, 2 mg/kg) was 16.775 µM·h, the “Clearance rate Cl” value ([3]; IV 2 mpk, 2 mg/kg) was 4.56 mL/min/kg and the “Detention time MRT0-inf” value ([3]; IV 2 mpk, 2 mg/kg) was 3.58 h. The “Half-life T1/2” value ([3]; IV 2 mpk, 2 mg/kg) was 3.51 h, the “apparent volume of distribution Vdss” value ([3]; IV 2 mpk, 2 mg/kg) was 0.97 L/kg and the C0 ([3]; IV 2 mpk, 2 mg/kg) was 12.9 µM. The “Peak time Tmax” value ([3]; PO 10 mpk) was 1.67 h, the “Area under curve AUC0-inf” value ([3]; PO 10 mpk, 10 mg/kg) was 77.436 µM·h and the “Bioavailability F” value ([3]; PO 10 mpk, 10 mg/kg) was 76%. For the same molecule, the “Detention time MRT0-inf” value ([3]; PO 10 mpk, 10 mg/kg) was 4.82 h, the “Half-life T1/2” value ([3]; PO 10 mpk, 10 mg/kg) was 2.68 h and the Cmax ([3]; PO 10 mpk, 10 mg/kg) was 12 µM. The metabolites detected [5] was “no metabolites were detected”, the “Percentage of ultraviolet area” value [5] was 100% and the IC50 (URAT-1) was > 20 µM. The “inhibitory activity against URAT-1 compared with reference (±)-Lesinurad” value (URAT-1; URAT1 MDCK cells) was “significantly improved inhibitory activity”.
In the case of `CC(C)(Sc1nnc(Br)n1-c1c(Cl)cc(C2CC2)c2ccccc12)C(=O)O` (single isomer, unassigned) [(+)-WX005], the IC50 (URAT-1) is reported as 1.4 µM and the “inhibitory activity against URAT-1 compared with reference (±)-Lesinurad” value (URAT-1; URAT1 MDCK cells) is reported as “significantly improved inhibitory activity”.
For `O=C(O)CSc1nnc(Br)n1-c1c(Cl)cc(C2CC2)c2ccccc12` (single isomer, unassigned) [(−)-WX001], the Tmax ([3]; male, SD, plasma, 10 mg/kg, PO 10 mpk, read-out: Peak time Tmax) was 1.67 h, the AUC(0-inf) ([3]; male, SD, plasma, iv, 2 mg/kg, IV 2 mpk, read-out: Area under curve AUC0-inf) was 33 µM·h and the clearance ([3]; male, SD, plasma, iv, 2 mg/kg, IV 2 mpk, read-out: Clearance rate Cl) was 2.31 mL/min/kg. It also gave an MRT inf [3, 13] of 4.4 h, a half-life [3, 13] of 2.86 h and a C0 [3, 13] of 11.7 µM. The Vd ([3]; male, SD, plasma, iv, 2 mg/kg, IV 2 mpk, read-out: apparent volume of distribution Vdss) was 0.61 L/kg, the bioavailability [3, 12] was 94% and the MRT inf [3, 12] was 7.18 h. The half-life [3, 12] was 4.86 h, the Cmax [3, 12] was 20.6 µM and the “Area under curve AUC0-inf” value ([3]; PO 10 mpk, 10 mg/kg) was 154.895 µM·h. For the same molecule, the metabolites detected [5] was “no metabolites were detected”, the “Percentage of ultraviolet area” value [5] was 100% and the IC50 (URAT-1) was 8 µM. The “fold inhibitory activity in vitro compared to the other isomer (+)-WX002” value (URAT-1; URAT1 MDCK cells) was “more than 3 fold” and the “inhibitory activity against URAT-1 compared with reference (±)-Lesinurad” value (URAT-1; URAT1 MDCK cells) was “significantly improved inhibitory activity”.
For `CC(C)(Sc1nnc(Br)n1-c1c(Cl)cc(C2CC2)c2ccccc12)C(=O)O` (single isomer, unassigned) [(−)-WX004], the IC50 (URAT-1) was 1.1 µM and the “inhibitory activity against URAT-1 compared with reference (±)-Lesinurad” value (URAT-1; URAT1 MDCK cells) was “significantly improved inhibitory activity”.
In the case of `O=C(O)CSc1nncn1-c1ccc(C2CC2)c2ccccc12` [Compound M2], the “Percentage of administered dose” value ([7]; Feces) is listed as 4.8% and the “Percentage of administered dose” value ([7]; Urine) is listed as 0.3%.
In the case of `O=C(O)CSc1nnc(Br)n1-c1ccc(C2(O)CC2)c2ccccc12` [Compound M3], the “amount of metabolite / parent found (Total 100)” value [2] is given as “not detected”, the “Percentage of administered dose” value ([7]; Feces) is given as 0.3% and the “Percentage of administered dose” value ([7]; Urine) is given as 12.0%. For the same molecule, the “amount of metabolite / parent found (Total 100)” value [8] was 7.9 and the “amount of metabolite / parent found (Total 100)” value [10] was “not detected”.
For `O=C(O)CSc1nnc(Br)n1-c1ccc(C2CC2)c2c1C=CC(O)C2O` (stereo not drawn) [Compound M4], the “amount of metabolite / parent found (Total 100)” value [2] is given as “not detected”, the “Percentage of administered dose” value ([7]; Feces) is given as 5.0% and the “Percentage of administered dose” value ([7]; Urine) is given as 15.7%. The “amount of metabolite / parent found (Total 100)” value [10] was “not detected”.
In the case of `O=C(O)CSc1nncn1-c1ccc(C2(O)CC2)c2ccccc12` [Compound M5], the “Percentage of administered dose” value ([7]; Feces) is listed as 3.6%.
